The structures appear in SMILES notation. Starred links: 1 amine or outer side, 2 acyl side, 3 side chain; linkers in the order of their positions; H or OH if unused. Non-standard residues stand in square brackets, D forms with d. Residues, ends and D or L forms follow the SMILES beside them. Groups on a side chain read outwards from the residue. *: point of attachment. C20 diacid = O=C(O)CCCCCCCCCCCCCCCCCCC(=O)*; γGlu = O=C(O)[C@H](CCC(=O)[*:2])N[*:1]; αMeF = C[C@](N)(Cc1ccccc1)C(=O)O; αMeL = CC(C)C[C@](C)(N)C(=O)O; AEEA = NCCOCCOCC(=O)O; Ac3c = NC1(C(=O)O)CC1; Aib = CC(C)(N)C(=O)O

For experiment [1], the target named is Human GLP-1R (Homo sapiens, UniProt P43220). As to the kind of experiment: cAMP (HTRF) activity in HEK-293 cells stably overexpressing human GLP-1 receptor. It is filed as cell-based. Also on record: expressed in transfected cells; host or cells: HEK-293. The conditions noted are these: for Human GLP-1R Rel. A (Relative Activity): EC50 of human GLP-1 (7-37) / EC50 of compound; for EC50: stable transfected cell cAMP activity, at least 3 independent tests. Here is the method:
(§1) By measuring the cAMP signal response levels of the aforementioned cells, the agonistic activity of individual compound towards the corresponding receptor was determined. The intracellular cAMP content was measured using reagent kit available from Cisbio Corp. based on HTRF (homogeneous time-resolved fluorescence) technology.
(§2) The cell fluid was transferred to 10 ml of HBSS for resuspension, and centrifuged at 1000 rpm for 5 minutes at room temperature.
(§3) 10 μL cell suspension was added to each well in the 384 well plate. […] Using the ECHO liquid transfer system, 100 nL of the prepared compound solution was added to the corresponding cell suspensions in the 384 well plate, rotated and shaken at 1000 rpm for 1 minute to mix evenly, and then incubated at room temperature for 60 minutes. 10 μL of detection reagent was added to each well after drug incubation was completed, and incubation was performed in the kit at room temperature for 60 minutes. […] GraphPad Prism 5 plotting software was used to create compound concentration response curves and EC50 (nM) values was calculated.
A general note: TR-FRET usually uses a lanthanide donor and a delayed reading to cut background.

Experiment [2] has as its system human primary liver cells. It is filed as cell-based. The conditions noted are these: for Rel. A (Relative Activity) on human primary liver cells: relative to GCG. Here is the method: The cAMP levels produced by compounds on human primary liver cells were determined in this experiment. Human primary liver cells were purchased from Lonza (cell product number HUCPG).
Frozen human primary liver cells were placed in a 37° C. constant temperature water bath for rapid thawing and recovery. The cell solution was transferred to 10 ml of HBSS for resuspension, and centrifuged at 1000 rpm for 5 minutes at room temperature.
10 μL cell suspension was added to each well in the 384 well plate. […] Using the ECHO liquid transfer system, 100 nL of the prepared compound solution was added to the corresponding cell suspensions in the 384 well plate, rotated and shaken at 1000 rpm for 1 minute to mix evenly, and then incubated at room temperature for 60 minutes. 10 μL of detection reagent was added to each well after drug incubation was completed, and incubation was performed for 60 minutes.

For experiment [3], the system named is RIN-m5F cells. It is filed as cell-based, rat. The conditions noted are these: for Rel. A (Relative Activity) on RIN-m5F: relative to GLP-1(7-37). Here is the method:
This experiment measured the cAMP level produced by the compound on RIN-mF cells.
Frozen […] cells were placed in a 37° C. constant temperature water bath for rapid thawing and recovery. The cell solution was transferred to 10 ml of HBSS for resuspension, and centrifuged at 1000 rpm for 5 minutes at room temperature.
10 μL cell suspension was added to each well in the 384 well plate. […] Using the ECHO liquid transfer system, 100 nL of the prepared compound solution was added to the corresponding cell suspensions in the 384 well plate, rotated and shaken at 1000 rpm for 1 minute to mix evenly, and then incubated at room temperature for 60 minutes. 10 μL of detection reagent was added to each wells after drug incubation was completed, and incubation was performed for 60 minutes.

The target in experiment [4] is T1, Human GCG R (Homo sapiens, UniProt P47871).
T1 construct: expressed in transfected cells; host or cells: HEK-293
As to the kind of experiment: cAMP (HTRF) activity in HEK-293 cells stably overexpressing human GCG receptor. It is filed as cell-based. The conditions noted are these: EC50 of human GCG / EC50 of compound. Here is the method:
as §1, §2, §3

Experiment [5] deals with 3T3-L1 adipocytes. The conditions noted are these: for Rel. A (Relative Activity) on 3T3-L1 adipocyte: relative to GIP. Here is the method:
Mouse 3T3-L1 precursor adipocytes can be induced to differentiate into mature adipocytes. […] After the cells became full and contacted with each other, DMEM differentiation medium containing 20% FBS, 0.5 mM IBMX, 0.4 ug/mL dexamethasone, and 5 ug/mL insulin was used to induce differentiation of 3T3-L1 adipocyte. After 5 days of induction and cultivation, DMEM medium containing […], 4 ug/ml insulin, and 10 uM rosiglitazone was used to continue induction and cultivation for 3 days. Then, DMEM medium containing 10% FBS was used to continue cultivation for 2-3 days to induce mature 3T3-L1 adipocytes.
The cAMP level produced by the compound on 3T3-L1 adipocytes was determined in this experiment. The tested compound solution was diluted step by step according to a concentration gradient of 3 times, to obtain a total of 10 series of concentration solutions. The solutions were added to induced mature 3T3-L1 adipocytes and incubated at room temperature for 60 minutes. 10 μL detection reagent in the kit was added to each well after drug incubation, and incubated at room temperature for another 60 minutes. […] GraphPad Prism 5 plotting software was used to create compound concentration-effect curves and calculation was performed.

Experiment [6] deals with T2, Human GIP R (Homo sapiens, UniProt P48546).
T2 construct: expressed in transfected cells; host or cells: CHO
T2 sequence (P48546 22-466): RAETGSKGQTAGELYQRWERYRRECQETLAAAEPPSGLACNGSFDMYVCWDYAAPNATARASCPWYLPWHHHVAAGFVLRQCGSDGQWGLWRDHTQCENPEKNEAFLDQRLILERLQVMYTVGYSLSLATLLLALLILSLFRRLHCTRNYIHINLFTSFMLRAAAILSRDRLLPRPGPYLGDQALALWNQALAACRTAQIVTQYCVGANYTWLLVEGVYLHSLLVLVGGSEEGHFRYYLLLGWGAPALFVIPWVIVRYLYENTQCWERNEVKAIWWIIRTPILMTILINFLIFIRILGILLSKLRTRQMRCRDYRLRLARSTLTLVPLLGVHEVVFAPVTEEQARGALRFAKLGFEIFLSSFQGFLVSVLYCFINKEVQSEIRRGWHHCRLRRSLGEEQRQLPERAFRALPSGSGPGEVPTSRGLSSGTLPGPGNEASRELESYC
As to the kind of experiment: cAMP (HTRF) activity in CHO cells stably overexpressing GIP receptor. The format is cell-based. The conditions noted are these: for Human GIP R Rel. A (Relative Activity): EC50 of human GIP / EC50 of compound; for EC50: stable transfected cell cAMP activity, at least 3 independent tests. Here is the method:
as §1, §2, §3

Human GLP-1R, sequence (P43220 24-463): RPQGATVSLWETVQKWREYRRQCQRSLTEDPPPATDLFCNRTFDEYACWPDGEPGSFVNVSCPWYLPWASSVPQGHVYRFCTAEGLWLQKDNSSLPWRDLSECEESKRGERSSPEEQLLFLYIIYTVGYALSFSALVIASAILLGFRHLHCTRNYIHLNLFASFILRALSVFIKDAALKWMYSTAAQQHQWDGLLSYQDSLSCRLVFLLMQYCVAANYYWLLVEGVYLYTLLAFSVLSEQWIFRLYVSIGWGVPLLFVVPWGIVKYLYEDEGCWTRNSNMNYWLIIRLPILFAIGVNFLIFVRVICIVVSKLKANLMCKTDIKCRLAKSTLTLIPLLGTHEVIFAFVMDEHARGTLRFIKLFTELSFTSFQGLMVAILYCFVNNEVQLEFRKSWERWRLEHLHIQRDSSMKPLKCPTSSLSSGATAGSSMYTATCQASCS
T1 sequence (P47871 26-477): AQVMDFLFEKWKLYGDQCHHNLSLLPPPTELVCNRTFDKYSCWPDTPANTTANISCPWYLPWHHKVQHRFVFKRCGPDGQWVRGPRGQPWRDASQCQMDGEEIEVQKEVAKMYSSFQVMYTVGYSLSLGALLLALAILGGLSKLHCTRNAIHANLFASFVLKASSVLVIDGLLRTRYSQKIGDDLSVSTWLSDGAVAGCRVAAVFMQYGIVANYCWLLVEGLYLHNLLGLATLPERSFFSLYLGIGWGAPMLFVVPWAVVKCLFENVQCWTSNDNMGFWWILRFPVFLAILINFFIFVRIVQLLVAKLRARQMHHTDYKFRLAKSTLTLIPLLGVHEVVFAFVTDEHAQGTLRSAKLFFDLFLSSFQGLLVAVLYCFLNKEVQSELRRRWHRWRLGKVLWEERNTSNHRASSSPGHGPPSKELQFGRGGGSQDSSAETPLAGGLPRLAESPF

For `CC[C@H](C)[C@H](NC(=O)[C@H](Cc1ccccc1)NC(=O)[C@H](C)NC(=O)C(C)(C)NC(=O)[C@H](CCC(N)=O)NC(=O)[C@H](C)NC(=O)[C@H](CCCCNC(=O)COCCOCCNC(=O)COCCOCCNC(=O)CC[C@H](NC(=O)CCCCCCCCCCCCCCCCCCC(=O)O)C(=O)O)NC(=O)[C@H](CCCCN)NC(=O)[C@H](CC(=O)O)NC(=O)[C@H](CC(C)C)NC(=O)[C@](C)(CC(C)C)NC(=O)[C@@H](NC(=O)[C@H](CO)NC(=O)[C@H](Cc1ccc(O)cc1)NC(=O)[C@H](CC(=O)O)NC(=O)[C@H](CO)NC(=O)[C@@H](NC(=O)[C@](C)(Cc1ccccc1)NC(=O)[C@@H](NC(=O)CNC(=O)[C@H](CCC(N)=O)NC(=O)C(C)(C)NC(=O)[C@@H](N)Cc1ccc(O)cc1)[C@@H](C)O)[C@@H](C)O)[C@@H](C)CC)C(=O)N[C@@H](CCC(=O)O)C(=O)N[C@@H](Cc1ccc(O)cc1)C(=O)N[C@@H](CC(C)C)C(=O)N[C@@H](CC(C)C)C(=O)N[C@@H](CCC(=O)O)C(=O)N[C@H](C(=O)NCC(=O)N1CCC[C@H]1C(=O)N[C@@H](CO)C(=O)N[C@@H](CO)C(=O)NCC(=O)N[C@@H](CCC(N)=O)C(=O)N1CCC[C@H]1C(=O)N1CCC[C@H]1C(=O)NC1(C(=O)N[C@@H](CO)C(N)=O)CC1)[C@@H](C)O` [Compound 35] (H-Y[Aib]QGT[αMeF]TSDYSI[αMeL]LDKK([AEEA-AEEA-γGlu-C20 diacid])AQ[Aib]AFIEYLLETGPSSGQPP[Ac3c]S-NH2; N-terminus assumed), in experiment [1], the “Human GLP-1R Rel. A (Relative Activity)” value stood at 200.00% and a half-maximal response (EC50) required 0.022 nM. Further, in experiment [2], a half-maximal effect (EC50) was put at 1.96 nM and the “Rel. A (Relative Activity) on human primary liver cells” value worked out at 198.52%. In addition, in experiment [3], the EC50 – broadly, the concentration needed to bring the measured effect to its halfway point – stood at 0.346 nM and the “Rel. A (Relative Activity) on RIN-m5F” value worked out at 298.27%. For the same compound, the “Human GCG R Rel. A (Relative Activity)” value in experiment [4] amounted to 65.52%. In experiment [5], a half-maximal effect (EC50) was put at 6.01 nM and the “Rel. A (Relative Activity) on 3T3-L1 adipocyte” value amounted to 63.28%. In experiment [6], the “Human GIP R Rel. A (Relative Activity)” value was determined as 2262.50% and a half-maximal effect (EC50) was put at 0.008 nM.

Turning to `CC[C@H](C)[C@H](NC(=O)[C@H](Cc1ccccc1)NC(=O)[C@H](C)NC(=O)C(C)(C)NC(=O)[C@H](CCC(N)=O)NC(=O)[C@H](C)NC(=O)[C@H](CCCCNC(=O)COCCOCCNC(=O)COCCOCCNC(=O)CC[C@H](NC(=O)CCCCCCCCCCCCCCCCCCC(=O)O)C(=O)O)NC(=O)[C@H](CCCCN)NC(=O)[C@H](CC(=O)O)NC(=O)[C@H](CC(C)C)NC(=O)[C@](C)(CC(C)C)NC(=O)[C@@H](NC(=O)[C@H](CO)NC(=O)[C@H](Cc1ccc(O)cc1)NC(=O)[C@H](CC(=O)O)NC(=O)[C@H](CO)NC(=O)[C@@H](NC(=O)[C@](C)(Cc1ccccc1)NC(=O)[C@@H](NC(=O)CNC(=O)[C@H](CCC(N)=O)NC(=O)C(C)(C)NC(=O)[C@@H](N)Cc1ccc(O)cc1)[C@@H](C)O)[C@@H](C)O)[C@@H](C)CC)C(=O)N[C@@H](CCC(=O)O)C(=O)N[C@@H](Cc1ccccc1)C(=O)N[C@@H](CC(C)C)C(=O)N[C@@H](CC(C)C)C(=O)N[C@@H](CCC(=O)O)C(=O)N[C@H](C(=O)NC(C)(C)C(=O)N1CCC[C@H]1C(=O)N[C@@H](CO)C(=O)N[C@@H](CO)C(=O)NCC(=O)N[C@@H](C)C(=O)N1CCC[C@H]1C(=O)N1CCC[C@H]1C(=O)NC1(C(=O)N[C@@H](CO)C(N)=O)CC1)[C@@H](C)O` [Compound 30] (H-Y[Aib]QGT[αMeF]TSDYSI[αMeL]LDKK([AEEA-AEEA-γGlu-C20 diacid])AQ[Aib]AFIEFLLET[Aib]PSSGAPP[Ac3c]S-NH2; N-terminus assumed), in experiment [1], the “Human GLP-1R Rel. A (Relative Activity)” value is 220.00% and the EC50 was found to be 0.02 nM. In experiment [2], a half-maximal response (EC50) required 7.83 nM and the “Rel. A (Relative Activity) on human primary liver cells” value was found to be 49.73%. In experiment [3], the EC50 was found to be 0.878 nM and the “Rel. A (Relative Activity) on RIN-m5F” value is 117.54%. The “Human GCG R Rel. A (Relative Activity)” value in experiment [4] came to 32.95%. In experiment [5], the EC50 was 7.08 nM and the “Rel. A (Relative Activity) on 3T3-L1 adipocyte” value was 53.67%. Further, in experiment [6], the “Human GIP R Rel. A (Relative Activity)” value stood at 1206.67% and the EC50 turned out to be 0.015 nM.
